Source: ChEMBL document CHEMBL1133487, “Synthesis and biological evaluation of 2,5-dihydropyrazol” (Bioorg Med Chem Lett, 2000)

Assays:
Phosphodiesterase 3 = Phosphodiesterase 3 (Homo sapiens, UniProt Q14432+Q13370); experiment: Inhibitory potency against guinea pig ventricular phosphodiesterase 3; format: protein assay, Cavia porcellus; conditions: target entry is the homologue from another species
Phosphodiesterase 4 = Phosphodiesterase 4 (Homo sapiens, UniProt P27815+Q08499+Q07343+Q08493); experiment: Inhibitory potency against guinea pig ventricular phosphodiesterase 4; format: protein assay, Cavia porcellus; conditions: target entry is the homologue from another species
Canis familiaris [1] = experiment: Minimum emetic dose in dogs after intravenous administration; format: functional, Canis lupus familiaris
Cavia porcellus [2] = experiment: Inhibition of Eosinophilia after peroral administration at 10 mg/Kg compound in guinea pig; format: functional; conditions: po
Cavia porcellus [3] = experiment: Inhibition of histamine induced bronchoconstriction in guinea pig after intravenous administration; format: functional
Canis familiaris [4] = experiment: Minimum emetic dose in dogs after peroral administration; format: functional, Canis lupus familiaris

Row | IC50 (Phosphodiesterase 3) | IC50 (Phosphodiesterase 4) | Structure (SMILES) | Dose (Canis familiaris [1]) | inhibition in vivo at 10 mg/kg (Cavia porcellus [2]) | ED50 (Cavia porcellus [3]) | Dose (Canis familiaris [4])
1 | > 20 µM | 1.4 µM | O=c1c2cn(Cc3ccccc3)c3ccccc3c-2nn1C1CC2CCC1C2 (configuration not stated) | – | – | – | –
2 | 136 µM | 90 µM | CCCCn1[nH]c2c(cnc3ccccc32)c1=O | – | – | – | –
3 | 111 µM | 0.7 µM | CCCCn1nc2c3ccccc3n(CC3CCCCC3)cc-2c1=O | >1 mg/kg | 60% | > 0.1 mg/kg | –
4 | 102 µM | 24 µM | O=c1c2cn(Cc3ccccc3)c3ccccc3c-2nn1CC1CCCCC1 | – | – | – | –
5 | 120 µM | 6.4 µM | CCCCCn1nc2c3ccccc3n(Cc3ccccc3)cc-2c1=O | – | – | – | –
6 | > 20 µM | 0.8 µM | CC(C)(C)n1nc2c3ccccc3n(Cc3cccs3)cc-2c1=O | – | – | – | –
7 | > 100 µM | 10 µM | O=c1c2cn(Cc3ccccc3)c3ccccc3c-2nn1CCc1ccccc1 | – | – | – | –
8 | 48 µM | 37 µM | O=c1[nH]nc2c3ccccc3n(Cc3ccccc3)cc1-2 | – | – | – | –
9 | > 100 µM | 2.1 µM | CC(C)(C)n1nc2c3ccccc3n(Cc3ccccc3)cc-2c1=O | – | 51% | – | >10 mg/kg
10 | > 20 µM | 0.4 µM | O=c1c2cn(Cc3cccs3)c3ccccc3c-2nn1C1CCCC1 | >3 mg/kg | 62% | 0.083 mg/kg | –
11 | > 200 µM | 160 µM | CCCCn1nc2c3ccccc3n(CCc3ccccc3)cc-2c1=O | – | – | – | –
12 | > 20 µM | 0.5 µM | CC(C)(C)n1nc2c3ccccc3n(CC3CCCCC3)cc-2c1=O | – | – | – | –
13 | > 200 µM | 12 µM | CCCCn1nc2c3ccccc3n(Cc3cccc(N)c3)cc-2c1=O | – | – | – | –
14 | 86 µM | 1.2 µM | CC(C)n1nc2c3ccccc3n(Cc3ccccc3)cc-2c1=O | – | – | – | –
15 | > 200 µM | 0.05 µM | CCn1c(=O)c2ccccc2n(-c2cccc([N+](=O)[O-])c2)c1=O [NITRAQUAZONE] | – | – | – | –

Further lines, the molecule ahead of its results:

Row | Structure (SMILES) | IC50 (Phosphodiesterase 3) | IC50 (Phosphodiesterase 4) | Dose (Canis familiaris [1]) | inhibition in vivo at 10 mg/kg (Cavia porcellus [2]) | ED50 (Cavia porcellus [3]) | Dose (Canis familiaris [4])
16 | O=c1c2cn(Cc3ccccc3)c3ccccc3c-2nn1C1CCCC1 | 26 µM | 0.7 µM | – | – | – | –
17 | CCCCn1nc2c3ccccc3n(Cc3cccc([N+](=O)[O-])c3)cc-2c1=O | > 20 µM | 11 µM | – | – | – | –
18 | O=c1c2cn(CC3CCCCC3)c3ccccc3c-2nn1C1CCCC1 | > 20 µM | 0.4 µM | – | – | – | –
19 | O=c1c2cn(Cc3ccccc3)c3ccccc3c-2nn1Cc1ccccc1 | 25 µM | 7 µM | – | – | – | –
20 | CCn1nc2c3ccccc3n(Cc3ccccc3)cc-2c1=O | 10 µM | 3 µM | – | – | – | –
21 | Cn1nc2c3ccccc3n(Cc3ccccc3)cc-2c1=O | 67 µM | 14 µM | – | – | – | –
22 | CCCCn1nc2c3ccccc3n(-c3ccccc3)cc-2c1=O | 68 µM | 18 µM | – | – | – | –
23 | CCCCn1nc2c3ccccc3n(Cc3ccccc3)cc-2c1=O | 31 µM | 2.1 µM | >3 mg/kg | 52% | > 0.1 mg/kg | –
24 | CCCCn1nc2c3ccccc3n(Cc3cccc(Cl)c3)cc-2c1=O | > 20 µM | 2.3 µM | – | 53% | 0.062 mg/kg | >10 mg/kg
25 | O=c1c2cn(Cc3ccccc3)c3ccccc3c-2nn1CC1CCC1 | > 200 µM | 0.8 µM | – | – | – | –
26 | CCCCn1nc2c3ccccc3n(Cc3cccs3)cc-2c1=O | > 20 µM | 2.7 µM | – | 56% | 0.037 mg/kg | >10 mg/kg
27 | COc1ccc(C2CNC(=O)C2)cc1OC1CCCC1 (configuration not stated) [ROLIPRAM] | – | – | 0.03 mg/kg | 58% | 0.004 mg/kg | –
